Laboratory results as given in patent US20150080438A1, “6,7-Dihydro-5H-benzo[7]annulene derivatives, processes for their preparation, pharmaceutical products comprising them and their use for preparing medicaments” (Bayer Intellectual Property GmbH, priority 2011, published 2015).
Values belong to the compound of their own block, whether it stands above or below them.

Biological target: T1, oestrogen receptor (ER) (Homo sapiens, UniProt P03372)
T1 construct: These MVLN cells express, along with the functional oestrogen receptor (ER), a reporter construct; endogenous in cells; host or cells: MVLN cells (MCF7 derivative with ER-responsive luciferase reporter)
T1 sequence (P03372 1-595): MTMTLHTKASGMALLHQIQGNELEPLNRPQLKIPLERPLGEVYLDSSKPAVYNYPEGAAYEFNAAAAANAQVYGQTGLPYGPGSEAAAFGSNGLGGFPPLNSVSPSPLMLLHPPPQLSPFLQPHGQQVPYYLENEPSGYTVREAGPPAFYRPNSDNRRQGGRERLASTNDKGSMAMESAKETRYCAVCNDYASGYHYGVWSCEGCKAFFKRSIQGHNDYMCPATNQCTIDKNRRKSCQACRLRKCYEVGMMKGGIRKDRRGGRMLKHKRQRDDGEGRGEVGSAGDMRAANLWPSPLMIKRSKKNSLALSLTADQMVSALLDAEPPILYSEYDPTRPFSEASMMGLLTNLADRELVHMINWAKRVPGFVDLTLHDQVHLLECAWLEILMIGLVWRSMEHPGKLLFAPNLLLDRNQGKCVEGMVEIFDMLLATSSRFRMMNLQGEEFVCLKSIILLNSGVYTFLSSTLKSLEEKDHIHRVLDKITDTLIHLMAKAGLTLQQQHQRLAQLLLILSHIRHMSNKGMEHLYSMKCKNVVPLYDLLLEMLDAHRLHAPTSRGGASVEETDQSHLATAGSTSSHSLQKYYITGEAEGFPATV
Test: Anti-oestrogenic action in MVLN cells (inhibition of estradiol-induced luciferase, transactivation antagonism)
Type: cell-based
Details: inhibition of estradiol-induced luciferase activity, read-out: Anti-oestrogenic action in vitro: MVLN transactivation antagonism IC50
In short: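 MCF7-derived MVLN cells carrying an ER-driven luciferase reporter; test compounds applied with estradiol, and anti-oestrogenic action scored as inhibition of the estradiol-induced luciferase signal.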

SMILES: CC(C)(O)CN(CCCCCCC1=C(c2ccccc2)CCCc2cc(O)ccc21)CCCS(=O)(=O)CCCC(F)(F)C(F)(F)F [Example 75, 9-{6-[(2-Hydroxy-2-methylpropyl){3-[(4,4,5,5,5-pentafluoropentyl)sulphonyl]propyl}amino]hexyl}-8-phenyl-6,7-dihydro-5H-benzo[7]annulen-3-01]
- IC50: 14 nM

SMILES: CCN(CCCCCCC1=C(c2ccccc2)CCCc2cc(O)ccc21)CCCS(=O)(=O)CCC(F)(F)F [Example 77, 9-[6-(Ethyl{3-[(3,3,3-trifluoropropyl)sulphonyl]propyl}amino)hexyl]-8-phenyl-6,7-dihydro-5H-benzo[7]annulen-3-ol]
- IC50: 61 nM

SMILES: O=S(=O)(CCCN(CCO)CCCCCCC1=C(c2ccccc2)CCCc2cc(O)ccc21)CCC(F)(F)F [Example 79, 9-{6-[(2-Hydroxyethyl){3-[(3,3,3-trifluoropropyl)sulphonyl]propyl}amino]hexyl}-8-phenyl-6,7-dihydro-5H-benzo[7]annulen-3-ol]
- IC50: 9 nM

SMILES: O=S(=O)(CCCN(CCCO)CCCCCCC1=C(c2ccccc2)CCCc2cc(O)ccc21)CCC(F)(F)F [Example 81, 9-{6-[(3-Hydroxypropyl){3-[(3,3,3-trifluoropropyl)sulphonyl]propyl}amino]hexyl}-8-phenyl-6,7-dihydro-5H-benzo[7]annulen-3-ol]
- IC50: 39 nM

SMILES: CC(C)(O)CN(CCCCCCC1=C(c2ccccc2)CCCc2cc(O)ccc21)CCCS(=O)(=O)CCC(F)(F)F [Example 83, 9-{6-[(2-Hydroxy-2-methylpropyl){3-[(3,3,3-trifluoropropyl)sulphonyl]propyl}amino]hexyl}-8-phenyl-6,7-dihydro-5H-benzo[7]annulen-3-ol]
- IC50: 7 nM

SMILES: CN(CCCCCC1=C(c2ccccc2)CCCc2cc(O)ccc21)CCCCS(=O)(=O)CCCC(F)(F)C(F)(F)F [Example 85, 9-[5-(Methyl{4-[(4,4,5,5,5-pentafluoropentyl)sulphonyl]butyl}amino)pentyl]-8-phenyl-6,7-dihydro-5H-benzo[7]annulen-3-ol]
- IC50: 40 nM

SMILES: CN(CCCCCCC1=C(c2ccc(F)c(O)c2)CCCc2cc(O)c(F)cc21)CCCS(=O)(=O)CCCC(F)(F)C(F)(F)F [Example 101, 2-Fluoro-8-(4-fluoro-3-hydroxyphenyl)-9-[6-(methyl{3-[(4,4,5,5,5-pentafluoropentyl)sulphonyl]propyl}amino)hexyl]-6,7-dihydro-5H-benzo[7]annulen-3-ol]
- IC50: 3 nM

SMILES: CN(CCCCCCC1=C(c2ccccc2)CCCc2c1ccc(O)c2Cl)CCCCS(=O)(=O)CCCC(F)(F)C(F)(F)F [Example 103, 4-Chloro-9-[6-(methyl{4-[(4,4,5,5,5-pentafluoropentyl)sulphonyl]butyl}amino)hexyl]-8-phenyl-6,7-dihydro-5H-benzo[7]annulen-3-ol]
- IC50: 26 nM

SMILES: CN(CCCCCCC1=C(c2ccccc2)CCCc2c1ccc(O)c2Cl)CCCCS(=O)(=O)CCC(F)(F)F [Example 109, 4-Chloro-9-[6-(methyl{4-[(3,3,3-trifluoropropyl)sulphonyl]butyl}amino)hexyl]-8-phenyl-6,7-dihydro-5H-benzo[7]annulen-3-ol]
- IC50: 87 nM

SMILES: CN(CCCCCCC1=C(c2ccc(F)c(O)c2)CCCc2cc(O)ccc21)CCCCS(=O)(=O)CCC(F)(F)F [Example 110, 8-(4-Fluoro-3-hydroxyphenyl)-9-[6-(methyl{4-[(3,3,3-trifluoropropyl)sulphonyl]butyl}amino)hexyl]-6,7-dihydro-5H-benzo[7]annulen-3-ol]
- IC50: 5 nM

SMILES: CN(CCCCCC1=C(c2ccccc2)CCCc2cc(O)ccc21)CCCCS(=O)(=O)CCC(F)(F)F [Example 111, 9-[5-(Methyl{4-[(3,3,3-trifluoropropyl)sulphonyl]butyl}amino)pentyl]-8-phenyl-6,7-dihydro-5H-benzo[7]annulen-3-ol]
- IC50: 250 nM

SMILES: CN(CCCCCC1=C(c2cccc(O)c2)CCCc2cc(O)ccc21)CCCCS(=O)(=O)CCC(F)(F)F [Example 112, 8-(3-Hydroxyphenyl)-9-[5-(methyl{4-[(3,3,3-trifluoropropyl)sulphonyl]butyl}amino)pentyl]-6,7-dihydro-5H-benzo[7]annulen-3-ol]
- IC50: 45 nM

SMILES: CN(CCCCCCC1=C(c2cccc(O)c2)CCCc2cc(O)ccc21)CCCCS(=O)(=O)CCC(F)(F)F [Example 113, 8-(3-Hydroxyphenyl)-9-[6-(methyl{4-[(3,3,3-trifluoropropyl)sulphonyl]butyl}amino)hexyl]-6,7-dihydro-5H-benzo[7]annulen-3-ol]
- IC50: 2 nM

Next, values leading:

- IC50: 13 nM
SMILES: O=S(=O)(CCCN(CCO)CCCCCCC1=C(c2ccccc2)CCCc2cc(O)ccc21)CCCC(F)(F)C(F)(F)F [Example 71, 9-{6-[(2-Hydroxyethyl){3-[(4,4,5,5,5-pentafluoropentyl)sulphonyl]propyl}amino]hexyl}-8-phenyl-6,7-dihydro-5H-benzo[7]annulen-3-ol]

- IC50: 17 nM
SMILES: O=S(=O)(CCCN(CCCO)CCCCCCC1=C(c2ccccc2)CCCc2cc(O)ccc21)CCCC(F)(F)C(F)(F)F [Example 73, 9-{6-[(3-Hydroxypropyl){3-[(4,4,5,5,5-pentafluoropentyl)sulphonyl]propyl}amino]hexyl}-8-phenyl-6,7-dihydro-5H-benzo[7]annulen-3-ol]

- IC50: 2 nM
SMILES: CCN(CCCCCCC1=C(c2cccc(O)c2)CCCc2cc(O)ccc21)CCCS(=O)(=O)CCCC(F)(F)C(F)(F)F [Example 90, 9-[6-(Ethyl{3-[(4,4,5,5,5-pentafluoropentyl)sulphonyl]propyl}amino)hexyl]-8-(3-hydroxyphenyl)-6,7-dihydro-5H-benzo[7]annulen-3-ol]

- IC50: 3 nM
SMILES: O=S(=O)(CCCN(CCO)CCCCCCC1=C(c2cccc(O)c2)CCCc2cc(O)ccc21)CCCC(F)(F)C(F)(F)F [Example 91, 9-{6-[(2-Hydroxyethyl){3-[(4,4,5,5,5-pentafluoropentyl)sulphonyl]propyl}amino]hexyl}-8-(3-hydroxyphenyl)-6,7-dihydro-5H-benzo[7]annulen-3-ol]

- IC50: 1 nM
SMILES: O=S(=O)(CCCN(CCCO)CCCCCCC1=C(c2cccc(O)c2)CCCc2cc(O)ccc21)CCCC(F)(F)C(F)(F)F [Example 92, 8-(3-Hydroxyphenyl)-9-{6-[(3-hydroxypropyl){3-[(4,4,5,5,5-mpentafluoropentyl)sulphonyl]propyl}amino]hexyl}-6,7-dihydro-5H-benzo[7]annulen-3-ol]

- IC50: 1 nM
SMILES: CC(C)(O)CN(CCCCCCC1=C(c2cccc(O)c2)CCCc2cc(O)ccc21)CCCS(=O)(=O)CCCC(F)(F)C(F)(F)F [Example 93, 9-{6-[(2-Hydroxy-2-methylpropyl){3-[(4,4,5,5,5-pentafluoropentyl)sulphonyl]propyl}amino]hexyl}-8-(3-hydroxyphenyl)-6,7-dihydro-5H-benzo[7]annulen-3-ol]

- IC50: 3 nM
SMILES: O=S(=O)(CCCN(CCO)CCCCCCC1=C(c2cccc(O)c2)CCCc2cc(O)ccc21)CCC(F)(F)F [Example 98, 9-{6-[(2-Hydroxyethyl){3-[(3,3,3-trifluoropropyl)sulphonyl]propyl}amino]hexyl}-8-(3-hydroxyphenyl)-6,7-dihydro-5H-benzo[7]annulen-3-ol]

- IC50: 8 nM
SMILES: O=S(=O)(CCCN(CCCO)CCCCCCC1=C(c2cccc(O)c2)CCCc2cc(O)ccc21)CCC(F)(F)F [Example 99, 8-(3-Hydroxyphenyl)-9-{6-[(3-hydroxypropyl){3-[(3,3,3-trifluoropropyl)sulphonyl]propyl}amino]hexyl}-6,7-dihydro-5H-benzo[7]annulen-3-ol]

- IC50: 3 nM
SMILES: CC(C)(O)CN(CCCCCCC1=C(c2cccc(O)c2)CCCc2cc(O)ccc21)CCCS(=O)(=O)CCC(F)(F)F [Example 100, 9-{6-[(2-Hydroxy-2-methylpropyl){3-[(3,3,3-trifluoropropyl)sulphonyl]propyl}amino]hexyl}-8-(3-hydroxyphenyl)-6,7-dihydro-5H-benzo[7]annulen-3-ol]

- IC50: 2 nM
SMILES: COCCN(CCCCCCC1=C(c2ccc(F)c(O)c2)CCCc2cc(O)ccc21)CCCS(=O)(=O)CCCC(F)(F)C(F)(F)F [Example 105, 8-(4-Fluoro-3-hydroxyphenyl)-9-{6-[(2-methoxyethyl){3-[(4,4,5,5,5-pentafluoropentyl)sulphonyl]propyl}amino]hexyl}-6,7-dihydro-5H-benzo[7]annulen-3-ol]

- IC50: 1 nM
SMILES: COCCN(CCCCCCC1=C(c2cccc(O)c2)CCCc2cc(O)ccc21)CCCS(=O)(=O)CCCC(F)(F)C(F)(F)F [Example 106, 8-(3-Hydroxyphenyl)-9-{6-[(2-methoxyethyl){3-[(4,4,5,5,5-pentafluoropentyl)sulphonyl]propyl}amino]hexyl}-6,7-dihydro-5H-benzo[7]annulen-3-ol]

- IC50: 3 nM
SMILES: COCCCN(CCCCCCC1=C(c2cccc(O)c2)CCCc2cc(O)ccc21)CCCS(=O)(=O)CCCC(F)(F)C(F)(F)F [Example 107, 8-(3-Hydroxyphenyl)-9-{6-[(3-methoxypropyl){3-[(4,4,5,5,5-pentafluoropentyl)sulphonyl]propyl}amino]hexyl}-6,7-dihydro-5H-benzo[7]annulen-3-ol]
